Experimental data taken from ChEMBL document CHEMBL1201862, “PubChem BioAssay data set” (2004).
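Following 48 hours of exposure in 96-well plates, responses at five concentrations were used to interpolate endpoints linearly. GI50 = concentration required for 50% inhibition of growth.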 Active and inactive are the calls of the source. Rule as the data show it: active = GI50 up to about 1.1 µM and inactive = higher.

Columns and labels:
Test in all cases: DTP human tumour cell line panel, 48 h
BT-549 = system: BT-549
NCI-H522 = system: NCI-H522
HOP-62 = system: HOP-62
SR = system: SR
SNB-19 = system: SNB-19
TK-10 = system: TK-10
K562 = system: K562
MDA-N = system: MDA-N
SW-620 = system: SW-620
CAKI-1 = system: CAKI-1
OVCAR-8 = system: OVCAR-8
MDA-MB-231 = system: MDA-MB-231
UACC-62 = system: UACC-62
SN12C = system: SN12C
RXF 393 = system: RXF 393
IGROV-1 = system: IGROV-1
MCF7 = system: MCF7
COLO 205 = system: COLO 205
RPMI-8226 = system: RPMI-8226
SNB-75 = system: SNB-75

Compound | GI50 (BT-549) | GI50 (NCI-H522) | GI50 (HOP-62) | GI50 (SR) | GI50 (SNB-19) | GI50 (TK-10) | GI50 (K562) | GI50 (MDA-N) | GI50 (SW-620) | GI50 (CAKI-1) | GI50 (OVCAR-8) | GI50 (MDA-MB-231) | GI50 (UACC-62) | GI50 (SN12C) | GI50 (RXF 393) | GI50 (IGROV-1) | GI50 (MCF7) | GI50 (COLO 205) | GI50 (RPMI-8226) | GI50 (SNB-75)
O=c1[nH]c2c(S)nc(O)nc2n1-c1ccccc1 | > 100 µM (inactive) | > 100 µM (inactive) | > 100 µM (inactive) | > 100 µM (inactive) | > 100 µM (inactive) | > 100 µM (inactive) | > 100 µM (inactive) | > 100 µM (inactive) | > 100 µM (inactive) | > 100 µM (inactive) | > 100 µM (inactive) | > 100 µM (inactive) | > 100 µM (inactive) | > 100 µM (inactive) | > 100 µM (inactive) | > 100 µM (inactive) | – | – | – | –
c1ccc2/c3[nH]/c(c2c1)=N\c1ccc(cc1)-c1nc2cc(ccc2o1)/N=c1/[nH]/c(c2ccccc12)=N/c1ccc2nc(oc2c1)-c1ccc(cc1)\N=3 | > 100 µM (inactive) | > 100 µM (inactive) | 78.3 µM (inactive) | > 100 µM (inactive) | > 100 µM (inactive) | – | > 100 µM (inactive) | > 100 µM (inactive) | > 100 µM (inactive) | > 100 µM (inactive) | – | – | 95.3 µM (inactive) | > 100 µM (inactive) | > 100 µM (inactive) | > 100 µM (inactive) | > 100 µM (inactive) | > 100 µM (inactive) | – | –
CCNC1(c2cccc(C)c2)OC(C)(C)c2cccc3cccc1c23 (configuration not stated) | 18.9 µM (inactive) | 15.1 µM (inactive) | 21 µM (inactive) | 5.16 µM (inactive) | 18.2 µM (inactive) | 17.3 µM (inactive) | 11.7 µM (inactive) | 19.3 µM (inactive) | 17.8 µM (inactive) | 19.8 µM (inactive) | 18.4 µM (inactive) | – | 15.6 µM (inactive) | 19 µM (inactive) | 16.8 µM (inactive) | 17.8 µM (inactive) | 17.7 µM (inactive) | 16.1 µM (inactive) | 0.0321 µM (active) | 15 µM (inactive)
CCOC(=O)Cn1nnc2ccc(Nc3nc4ccccc4nc3C(=O)OCC)cc21 | 73.8 µM (inactive) | 39.7 µM (inactive) | 38.3 µM (inactive) | > 100 µM (inactive) | 69.5 µM (inactive) | 45.1 µM (inactive) | > 100 µM (inactive) | > 100 µM (inactive) | > 100 µM (inactive) | > 100 µM (inactive) | > 100 µM (inactive) | – | 65.3 µM (inactive) | > 100 µM (inactive) | 37.9 µM (inactive) | > 100 µM (inactive) | > 100 µM (inactive) | > 100 µM (inactive) | > 100 µM (inactive) | 18.5 µM (inactive)
C=CCNC(=O)NC1=CSC2=NC(=O)C3(NN12)c1ccccc1-c1ccccc13 | > 10 µM (inactive) | > 10 µM (inactive) | > 10 µM (inactive) | > 10 µM (inactive) | > 10 µM (inactive) | > 10 µM (inactive) | > 10 µM (inactive) | – | > 10 µM (inactive) | > 10 µM (inactive) | > 10 µM (inactive) | > 10 µM (inactive) | > 10 µM (inactive) | > 10 µM (inactive) | > 10 µM (inactive) | > 10 µM (inactive) | > 10 µM (inactive) | > 10 µM (inactive) | > 10 µM (inactive) | > 10 µM (inactive)
O=C(O)CCSCc1ccccc1 | > 100 µM (inactive) | > 100 µM (inactive) | > 100 µM (inactive) | – | > 100 µM (inactive) | > 100 µM (inactive) | > 100 µM (inactive) | > 100 µM (inactive) | > 100 µM (inactive) | > 100 µM (inactive) | > 100 µM (inactive) | > 100 µM (inactive) | > 100 µM (inactive) | > 100 µM (inactive) | > 100 µM (inactive) | > 100 µM (inactive) | > 100 µM (inactive) | > 100 µM (inactive) | > 100 µM (inactive) | > 100 µM (inactive)
CC1(C)O[C@@H]2[C@@H](COC(=O)c3ccccc3)C[C@@H](C#N)[C@@H]2O1 | > 100 µM (inactive) | > 100 µM (inactive) | > 100 µM (inactive) | > 100 µM (inactive) | > 100 µM (inactive) | > 100 µM (inactive) | > 100 µM (inactive) | – | > 100 µM (inactive) | – | > 100 µM (inactive) | > 100 µM (inactive) | > 100 µM (inactive) | > 100 µM (inactive) | > 100 µM (inactive) | > 100 µM (inactive) | > 100 µM (inactive) | > 100 µM (inactive) | > 100 µM (inactive) | > 100 µM (inactive)
N#CC(c1cc2c(cc1Br)OCO2)N1CCOCC1 (configuration not stated) | – | > 100 µM (inactive) | 44 µM (inactive) | 4.82 µM (inactive) | 61.9 µM (inactive) | 90.8 µM (inactive) | 3.32 µM (inactive) | 18.2 µM (inactive) | 9.04 µM (inactive) | > 100 µM (inactive) | > 100 µM (inactive) | 43.7 µM (inactive) | 21.1 µM (inactive) | 56.2 µM (inactive) | 19.9 µM (inactive) | 58.1 µM (inactive) | 42.3 µM (inactive) | 64.9 µM (inactive) | 20.3 µM (inactive) | 30.1 µM (inactive)
Cc1ccc(S(=O)(=O)NCCCCC(N)C(=O)O)cc1 (configuration not stated) | > 100 µM (inactive) | > 100 µM (inactive) | > 100 µM (inactive) | – | > 100 µM (inactive) | – | > 100 µM (inactive) | > 100 µM (inactive) | > 100 µM (inactive) | > 100 µM (inactive) | > 100 µM (inactive) | > 100 µM (inactive) | > 100 µM (inactive) | > 100 µM (inactive) | > 100 µM (inactive) | > 100 µM (inactive) | > 100 µM (inactive) | > 100 µM (inactive) | > 100 µM (inactive) | > 100 µM (inactive)
CCOc1ccc(/C=C2/C(=O)N/C(=N\C(C)=O)N2C)cc1 | > 100 µM (inactive) | – | 96.6 µM (inactive) | – | > 100 µM (inactive) | > 100 µM (inactive) | – | > 100 µM (inactive) | > 100 µM (inactive) | > 100 µM (inactive) | > 100 µM (inactive) | > 100 µM (inactive) | > 100 µM (inactive) | > 100 µM (inactive) | > 100 µM (inactive) | > 100 µM (inactive) | 62.8 µM (inactive) | > 100 µM (inactive) | – | > 100 µM (inactive)
N#Cc1c(N2CCCC2)ncn(Cc2ccccc2)c1=O | > 100 µM (inactive) | > 100 µM (inactive) | > 100 µM (inactive) | > 100 µM (inactive) | > 100 µM (inactive) | > 100 µM (inactive) | > 100 µM (inactive) | > 100 µM (inactive) | > 100 µM (inactive) | – | > 100 µM (inactive) | – | > 100 µM (inactive) | > 100 µM (inactive) | > 100 µM (inactive) | > 100 µM (inactive) | – | > 100 µM (inactive) | > 100 µM (inactive) | > 100 µM (inactive)
COc1ccc([C@H]2[C@H]3COC(=O)[C@H]3C(C#N)=C3Sc4ccccc4N32)cc1 | 5.37 µM (inactive) | 18.1 µM (inactive) | 39 µM (inactive) | – | 48.3 µM (inactive) | 40.6 µM (inactive) | 41.4 µM (inactive) | 28.8 µM (inactive) | 48.6 µM (inactive) | 21.7 µM (inactive) | 51.3 µM (inactive) | 28.3 µM (inactive) | 28.8 µM (inactive) | 15.1 µM (inactive) | 3.11 µM (inactive) | – | 27.3 µM (inactive) | 15.3 µM (inactive) | 20.7 µM (inactive) | 9.64 µM (inactive)
CCNC(=S)NNC(=O)C12CC3CC(CC(C3)C1)C2 | > 100 µM (inactive) | > 100 µM (inactive) | > 100 µM (inactive) | – | > 100 µM (inactive) | > 100 µM (inactive) | > 100 µM (inactive) | > 100 µM (inactive) | > 100 µM (inactive) | > 100 µM (inactive) | > 100 µM (inactive) | > 100 µM (inactive) | > 100 µM (inactive) | > 100 µM (inactive) | > 100 µM (inactive) | > 100 µM (inactive) | > 100 µM (inactive) | > 100 µM (inactive) | > 100 µM (inactive) | 64.1 µM (inactive)
O=[N+]([O-])/C(Cl)=C(/C(Cl)=C(Cl)Cl)N1CCCCC1 | – | 6.44 µM (inactive) | 22.6 µM (inactive) | 3.16 µM (inactive) | 24.5 µM (inactive) | 21.4 µM (inactive) | 7.64 µM (inactive) | 8.34 µM (inactive) | – | 11.8 µM (inactive) | 4.14 µM (inactive) | 24 µM (inactive) | 4.21 µM (inactive) | 14.2 µM (inactive) | 7.26 µM (inactive) | 10.6 µM (inactive) | 0.444 µM (active) | 10 µM (inactive) | 4.43 µM (inactive) | 18.8 µM (inactive)
Cc1ccc(C)n2c1nc1cc3ccccc3cc12 | 25.6 µM (inactive) | – | 21 µM (inactive) | 43.4 µM (inactive) | 24.4 µM (inactive) | 15.5 µM (inactive) | 47.2 µM (inactive) | 38.6 µM (inactive) | 33.1 µM (inactive) | – | 44.4 µM (inactive) | – | 18.8 µM (inactive) | 43 µM (inactive) | 12.3 µM (inactive) | 23.1 µM (inactive) | 1.14 µM (inactive) | 3.52 µM (inactive) | 42.5 µM (inactive) | 17 µM (inactive)
